# Like-named read-outs stand apart in the source and are kept apart here.
# Tested on: E. coli ΔsseA (3MST-deficient) strain
# Type: cell-based
# [1] = Table 1, relative values of growth inhibition (negative numbers), ΔsseA vs wt E. coli
Compound,ΔsseA inhibition of growth [1],ΔsseA inhibition of growth
"O=[N+]([O-])c1ccc(Cl)c([N+](=O)[O-])c1 [1-Chloro-2,4-dinitrobenzene]",−221,–
"CC(C)c1nc2nc(N)nc(N)c2nc1C(C)C [2,4-Diamino-6,7-diisopropylpteridine]",−429,–
"O=[N+]([O-])c1ccc(O)c([N+](=O)[O-])c1 [2,4-Dinitrophenol]",−296,–
Nc1c2ccccc2nc2ccccc12 [9-Aminoacridine],−142,–
"O=P(O)(O)O [200 mM Sodium Phosphate pH 7, Sodium Phosphate]",–,−497
CCCCC(CC)CNC(=N)NC(=N)NCCCCCCNC(=N)NC(=N)NCC(CC)CCCC (stereo not shown) [Alexidine],−216,–
CN(C)CCC=C1c2ccccc2CCc2ccccc21 [Amitriptyline],−422,–
CN[C@@H]1[C@@H](O[C@H]2O[C@H](CO)[C@@H](N)[C@H](O)[C@H]2O)OC2C[C@@H](N)[C@@H](O[C@H]3[C@H](O)[C@@H](O)[C@H](N)C[C@@H]3N)OC2[C@@H]1O (stereo partly shown) [Apramycin],−179,–
Cn1cnc([N+](=O)[O-])c1Sc1ncnc2nc[nH]c12 [Azathioprine],−341,–
NC(CO)C(=O)NNCc1ccc(O)c(O)c1O (stereo not shown) [Benserazide],−336,–
CN(CC[C@H](N)CC(=O)N[C@H]1C=C[C@H](n2ccc(N)nc2=O)O[C@@H]1C(=O)O)C(=N)N [Blasticidin S],−185,–
N#CC(C#N)=NNc1cccc(Cl)c1 [CCCP],−422,–
Cn1c(=O)c2c(ncn2C)n(C)c1=O [Caffeine],−173,–
O=C1C2CC=CCC2C(=O)N1SC(Cl)(Cl)Cl (stereo not shown) [Captan],−357,–
CC1(C)S[C@@H]2[C@H](NC(=O)C(C(=O)O)c3ccccc3)C(=O)N2[C@H]1C(=O)O (stereo partly shown) [Carbenicillin],−164,–
CCN1CCN(C(=O)N[C@@H](C(=O)N[C@@H]2C(=O)N3C(C(=O)O)=C(CSc4nnnn4C)CS[C@H]23)c2ccc(O)cc2)C(=O)C1=O [Cefoperazone],−159,–
NC(=O)c1cc[n+](CC2=C(C(=O)O)N3C(=O)[C@@H](NC(=O)[C@@H](c4ccccc4)S(=O)(=O)[O-])[C@H]3SC2)cc1 [Cefsulodin],−201,–
CC(=O)OCC1=C(C(=O)O)N2C(=O)[C@@H](NC(=O)Cc3cccs3)[C@H]2SC1 [Cephalothin],−160,–
O=C(O)CCCc1ccc(N(CCCl)CCCl)cc1 [Chlorambucil],−177,–
CN(C)CCCN1c2ccccc2Sc2ccc(Cl)cc21 [Chlorpromazine],−251,–
O=C(O)C=Cc1ccccc1 [Cinnamic acid],−204,–
Cc1onc(-c2ccccc2Cl)c1C(=O)N[C@@H]1C(=O)N2[C@@H]1SC(C)(C)[C@@H]2C(=O)O [Cloxacillin],−182,–
O=c1ccc2ccccc2o1 [Coumarin],−243,–
CN(C)c1ccc(C(=C2C=CC(=[N+](C)C)C=C2)c2ccc(N(C)C)cc2)cc1 [Crystal Violet],−576,–

Compound,ΔsseA inhibition of growth [1],ΔsseA inhibition of growth
Nc1ccn([C@@H]2O[C@H](CO)[C@@H](O)[C@@H]2O)c(=O)n1 [Cytosine arabinoside],−281,–
N[C@H](CO)C(=O)O [D-Serine],−398,–
CCN(CC)C(=S)SSC(=S)N(CC)CC [Disulfiram],−246,–
CCCCCCCCCCCC[N+](C)(C)C.[Br-] [Dodecyltrimethyl ammonium bromide],−225,–
CCCCCCCCCCCC[N+](C)(C)CCOc1ccccc1 [Domiphen bromide],−250,–
CC[C@H]1OC(=O)[C@H](C)[C@@H](O[C@H]2C[C@@](C)(OC)[C@@H](O)[C@H](C)O2)[C@H](C)[C@@H](O[C@@H]2O[C@H](C)C[C@H](N(C)C)[C@H]2O)[C@](C)(O)C[C@@H](C)C(=O)[C@H](C)[C@@H](O)[C@]1(C)O [Erythromycin],−468,–
N#CC(C#N)=NNc1ccc(OC(F)(F)F)cc1 [FCCP],–,−460
O=C1OC(CN2CCOCC2)CN1/N=C/c1ccc([N+](=O)[O-])o1 (stereo not shown) [Furaltadone],−162,–
CC(=O)O[C@H]1C[C@@]2(C)[C@@H](C[C@@H](O)[C@H]3[C@@]4(C)CC[C@@H](O)[C@@H](C)[C@@H]4CC[C@@]32C)/C1=C(\CCC=C(C)C)C(=O)O [Fusidic acid],−271,–
NO [Hydroxylamine],−150,–
O=[N+]([O-])c1ccc(-n2nc(-c3ccccc3)n[n+]2-c2ccc(I)cc2)cc1.[Cl-] [Iodonitro tetrazolium violet],−215,–
CO[C@@H]1[C@@H](O[C@@H]2O[C@H](C)[C@@H](O[C@H]3C[C@@](C)(O)[C@@H](OC(=O)CC(C)C)[C@H](C)O3)[C@H](N(C)C)[C@H]2O)[C@@H](CC=O)C[C@@H](C)[C@@H](O)/C=C/C=C/C[C@@H](C)OC(=O)C[C@H]1OC(C)=O [Josamycin],−294,–
CC(C(=O)O)c1cccc(C(=O)c2ccccc2)c1 (stereo not shown) [Ketoprofen],−468,–
O=C1C=C(O)C(=O)c2ccccc21 [Lawsone],−330,–
CCN(CC)CC(=O)Nc1c(C)cccc1C [Lidocaine],−269,–
CCCCCCCC[N+](C)(CCCCCCCC)CCCCCCCC.[Cl-] [Methyltrioctylammonium chloride],−326,–
CO[C@@]1(NC(=O)C(C(=O)O)c2ccc(O)cc2)C(=O)N2C(C(=O)O)=C(CSc3nnnn3C)CO[C@@H]21 (stereo partly shown) [Moxalactam],−171,–
CCOc1ccc2ccccc2c1C(=O)N[C@@H]1C(=O)N2[C@@H]1SC(C)(C)[C@@H]2C(=O)O [Nafcillin],−227,–
CCn1cc(C(=O)O)c(=O)c2ccc(C)nc21 [Nalidixic acid],−183,–
CCn1cc(C(=O)O)c(=O)c2cc(F)c(N3CCNCC3)cc21 [Norfloxacin],−212,–
CO[C@@H]1[C@@H](OC(N)=O)[C@@H](O)[C@H](Oc2ccc3c(O)c(NC(=O)c4ccc(O)c(CC=C(C)C)c4)c(=O)oc3c2C)OC1(C)C [Novobiocin],−265,–
CO[C@H]1C[C@H](O[C@H]2[C@H](C)[C@@H](O[C@@H]3O[C@H](C)C[C@H](N(C)C)[C@H]3O)[C@@H](C)C[C@@]3(CO3)C(=O)[C@H](C)[C@@H](O)[C@@H](C)[C@@H](C)OC(=O)[C@@H]2C)O[C@@H](C)[C@@H]1O [Oleandomycin],−498,–
Cc1ncc([N+](=O)[O-])n1CC(O)CCl (stereo not shown) [Ornidazole],−203,–
Cc1onc(-c2ccccc2)c1C(=O)N[C@@H]1C(=O)N2[C@@H]1SC(C)(C)[C@@H]2C(=O)O [Oxacillin],−346,–

Compound,ΔsseA inhibition of growth [1],ΔsseA inhibition of growth
CCn1cc(C(=O)O)c(=O)c2cc3c(cc21)OCO3 [Oxolinic acid],−117,–
CC1(C)S[C@@H]2[C@H](NC(=O)Cc3ccccc3)C(=O)N2[C@H]1C(=O)O [Penicillin G],−186,–
Oc1c(Cl)c(Cl)c(Cl)c(Cl)c1Cl [Pentachlorophenol],−287,–
CC(Oc1ccccc1)C(=O)N[C@@H]1C(=O)N2[C@@H]1SC(C)(C)[C@@H]2C(=O)O (stereo partly shown) [Phenethicillin],−216,–
"O=S(=O)(F)Cc1ccccc1 [Phenyl-methylsulfonyl-fluoride (PMSF), Phenyl-methylsulfonyl-fluoride]",−194,–
OC(CCN1CCCCC1)(c1ccccc1)c1ccccc1 [Pridinol],−206,–
Nc1ccc2cc3ccc(N)cc3nc2c1 [Proflavine],−93,–
CC(CN1c2ccccc2Sc2ccccc21)N(C)C (stereo not shown) [Promethazine],−262,–
CC(C)NCC(O)COc1cccc2ccccc12 (stereo not shown) [Propranolol],−263,–
CO[C@H]1/C=C/O[C@@]2(C)Oc3c(C)c([O-])c4c(O)c(cc(O)c4c3C2=O)NC(=O)/C(C)=C\C=C\[C@H](C)[C@H](O)[C@@H](C)[C@@H](O)[C@@H](C)[C@H](OC(C)=O)[C@@H]1C.[Na+] [Rifamycin SV],−352,–
N.N.N.N.N.N.N.N.N.N.N.N.N.N.[Cl-].[Cl-].[Cl-].[Cl-].[Cl-].[Cl-].[O-2].[O-2].[Ru+3].[Ru+3].[Ru+4] [Ruthenium red],−268,–
CCCCCCCC(=O)[O-].[Na+] [Sodium caprylate],−346,–
N#CO [Sodium cyanate],−238,–
[H]/N=C(/N)N[C@H]1[C@H](O)[C@@H](O)[C@H](O[C@@H]2O[C@@H](C)[C@](O)(C=O)[C@H]2O[C@@H]2O[C@@H](CO)[C@H](O)[C@@H](O)[C@@H]2NC)[C@@H](N/C(N)=N\[H])[C@@H]1O [Streptomycin],−421,–
c1ccc(-c2nn(-c3ccccc3)[n+](-c3cccc4ccccc34)n2)cc1 [Tetrazolium violet],−293,–
CSc1ccc2c(c1)N(CCC1CCCCN1C)c1ccccc1S2 (stereo not shown) [Thioridazine],−313,–
CCS(=O)(=O)CCn1c([N+](=O)[O-])cnc1C [Tinidazole],−223,–
CN1CCN(CCCN2c3ccccc3Sc3ccc(C(F)(F)F)cc32)CC1 [Trifluoperazine],−372,–
COc1cc(Cc2cnc(N)nc2N)cc(OC)c1OC [Trimethoprim],−212,–
CO[C@H]1C[C@H](O[C@H]2[C@H](C)[C@@H](O[C@@H]3O[C@H](C)C[C@H](N(C)C)[C@H]3OC(C)=O)[C@@H](C)C[C@@]3(CO3)C(=O)[C@H](C)[C@@H](OC(C)=O)[C@@H](C)[C@@H](C)OC(=O)[C@@H]2C)O[C@@H](C)[C@@H]1OC(C)=O [Troleandomycin],−203,–
CC[C@H]1OC(=O)C[C@@H](O)[C@H](C)[C@@H](O[C@@H]2O[C@H](C)[C@@H](O[C@H]3C[C@@](C)(O)[C@@H](O)[C@H](C)O3)[C@H](N(C)C)[C@H]2O)[C@@H](CC=O)C[C@@H](C)C(=O)/C=C/C(C)=C/[C@@H]1CO[C@@H]1O[C@H](C)[C@@H](O)[C@@H](OC)[C@H]1OC [Tylosin],−520,–
Acriflavine,−295,–
